Measured values published in patent US6677335B1, “Pharmaceutically active compounds” (Pfizer Inc, priority 1999, dated 2004).

How the values were obtained:
[1] = target: T1, cGMP PDE5 (Homo sapiens, UniProt O76074); test: In vitro PDE inhibitory activity against cGMP PDE5 (IC50); format: biochemical; details: cGMP PDE5 from human corpus cavernosum tissue
T1 construct: The IC50 measurements for cGMP PDE5 were based upon data generated on human corpus cavernosum tissue; from tissue; host or cells: human corpus cavernosum
Excerpt: (§1) The IC50 measurements for cGMP PDE5 were based upon data generated on human corpus cavernosum tissue and the IC50 measurements for rod cGMP PDE6 were based upon data generated on bovine retina tissue and wherein the selectivity ratio for cGMP PDE5 to cGMP PDE6 quoted is based upon IC50 PDE5/IC50 PDE6.

[2] = target: T2, rod cGMP PDE6 (Bos taurus, UniProt P11541+P23439); test: In vitro PDE inhibitory activity against rod cGMP PDE6 (IC50), used for the PDE5 versus PDE6 selectivity; format: biochemical; details: ratio of IC50 for cGMP PDE5 (human corpus cavernosum) and rod cGMP PDE6 (bovine retina)
T2 construct: the IC50 measurements for rod cGMP PDE6 were based upon data generated on bovine retina tissue; from tissue; host or cells: bovine retina
T2 sequence (P11541 2-856 limits assumed): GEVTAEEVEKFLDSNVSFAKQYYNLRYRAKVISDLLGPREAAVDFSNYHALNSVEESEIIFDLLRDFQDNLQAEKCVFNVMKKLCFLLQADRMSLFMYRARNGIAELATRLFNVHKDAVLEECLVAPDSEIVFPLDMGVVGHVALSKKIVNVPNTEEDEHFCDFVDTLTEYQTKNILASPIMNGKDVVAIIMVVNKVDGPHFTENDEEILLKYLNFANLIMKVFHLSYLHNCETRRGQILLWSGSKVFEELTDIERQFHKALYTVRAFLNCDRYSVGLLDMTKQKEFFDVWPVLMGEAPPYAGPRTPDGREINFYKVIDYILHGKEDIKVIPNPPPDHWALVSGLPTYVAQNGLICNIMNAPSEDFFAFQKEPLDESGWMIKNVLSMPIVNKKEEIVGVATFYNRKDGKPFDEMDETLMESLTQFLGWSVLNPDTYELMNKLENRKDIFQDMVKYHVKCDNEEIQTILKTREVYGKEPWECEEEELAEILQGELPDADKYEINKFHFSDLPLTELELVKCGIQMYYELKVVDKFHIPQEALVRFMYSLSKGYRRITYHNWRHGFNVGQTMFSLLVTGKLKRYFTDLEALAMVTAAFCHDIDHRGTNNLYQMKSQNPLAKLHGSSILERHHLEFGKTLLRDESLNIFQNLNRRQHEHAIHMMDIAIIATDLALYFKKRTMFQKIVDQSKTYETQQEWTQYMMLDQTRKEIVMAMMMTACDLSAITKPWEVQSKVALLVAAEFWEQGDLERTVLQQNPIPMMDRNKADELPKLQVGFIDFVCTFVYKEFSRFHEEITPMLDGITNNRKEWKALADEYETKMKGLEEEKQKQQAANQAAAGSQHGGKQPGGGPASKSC
T2 sequence (P23439 2-850 limits assumed): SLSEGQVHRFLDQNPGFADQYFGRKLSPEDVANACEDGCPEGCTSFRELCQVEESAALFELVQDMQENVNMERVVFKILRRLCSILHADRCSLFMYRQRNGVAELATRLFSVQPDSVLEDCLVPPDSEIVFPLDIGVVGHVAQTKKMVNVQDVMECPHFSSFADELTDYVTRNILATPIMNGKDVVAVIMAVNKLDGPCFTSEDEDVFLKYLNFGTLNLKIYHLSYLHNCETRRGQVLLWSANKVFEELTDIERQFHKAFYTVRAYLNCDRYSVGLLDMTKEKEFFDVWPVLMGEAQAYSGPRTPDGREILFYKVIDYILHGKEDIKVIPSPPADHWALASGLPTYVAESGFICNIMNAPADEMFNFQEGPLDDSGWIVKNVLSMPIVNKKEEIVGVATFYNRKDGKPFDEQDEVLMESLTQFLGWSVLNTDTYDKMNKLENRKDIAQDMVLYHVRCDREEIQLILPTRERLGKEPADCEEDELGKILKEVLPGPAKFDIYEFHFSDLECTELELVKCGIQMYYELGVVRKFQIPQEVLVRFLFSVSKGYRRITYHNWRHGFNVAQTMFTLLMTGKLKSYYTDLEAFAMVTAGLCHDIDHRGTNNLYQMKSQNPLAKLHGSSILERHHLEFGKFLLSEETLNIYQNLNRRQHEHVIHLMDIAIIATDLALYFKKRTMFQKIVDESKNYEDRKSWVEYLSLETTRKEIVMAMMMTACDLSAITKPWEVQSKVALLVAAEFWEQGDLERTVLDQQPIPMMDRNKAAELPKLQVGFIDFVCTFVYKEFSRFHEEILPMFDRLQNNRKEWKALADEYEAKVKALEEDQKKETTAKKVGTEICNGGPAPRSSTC
Excerpt: as §1

Compound | IC50 [1] | Selectivity (PDE 5/6) [2]
CCCCOc1ncc(S(=O)(=O)N2CCN(CC)CC2)cc1-c1nc2c(CC)n(CCN(C)C)nc2c(=O)[nH]1 [Example 17, 5-[2-n-Butoxy-5-(4-ethylpiperazin-1-ylsulphonyl)pryridin-3-yl]-2-dimethylaminoethyl-3-ethyl-2,6-dihydro-7H-pyrazolo[4,3-d]pyrimidin-7-one] | 0.9 nM | 254.1
CCCc1c2nc(-c3cc(S(=O)(=O)N4CCN(CC)CC4)cnc3OCC(C)C)[nH]c(=O)c2nn1CCOC [Example 27, 5-[2-isoButoxy-5-(4-ethylpiperazin-1-ylsulphonyl)pyridin-3-yl]-2-(2-methoxyethyl)-3-n-propyl-2,6-dihydro-7H-prazolo[4,3-d]pyrimidin-7-one] | 0.85 nM | 161
CCc1c2nc(-c3cc(S(=O)(=O)N4CCN(C)CC4)cnc3OCCOC)[nH]c(=O)c2nn1CC1CCC1 [Example 53, 2-Cyclobutylmethyl-3-ethyl-5-[2-(2-methoxyethoxy)-5-(4-methylpiperazin-1-ylsulphonyl)pyridin-3-yl]-2,6-dihydro-7H-pyrazolo[4,3-d]pyrimidin-7-one] | 1.09 nM | –
CCCCOc1ncc(S(=O)(=O)N2CCN(CC)CC2)cc1-c1nc2c(CC)n(CC(=O)N(C)C)nc2c(=O)[nH]1 [Example 60, 5-[2-n-Butoxy-5-(4-ethylpiperazin-1-ylsulphonyl)pyridin-3-yl]-2-[2-(dimethylamino)-2-oxoethyl]-3-ethyl-2,6-dihydro-7H-pyrazolo[4,3-d]pyrimidin-7-one] | 0.45 nM | 343.7

More lines, main results first:

IC50 [1] | Compound | Selectivity (PDE 5/6) [2]
1 nM | CCOc1ncc(S(=O)(=O)N2CCN(CC)CC2)cc1-c1nc2c(CC)n(CC(C)C)nc2c(=O)[nH]1 [Example 5] | –
1.68 nM | CCOc1ncc(S(=O)(=O)N2CCN(CC)CC2)cc1-c1nc2c(CC)n(CCOC)nc2c(=O)[nH]1 [Example 8, 1-{6-ethoxy-5-[3-ethyl-6,7-dihydro-2-(2-methoxyethyl)-7-oxo-2H-pyrazolo[4,3-d]pyrimidin-5-yl]-3-pyridylsulfonyl}-4-ethylpiperazine] | 223.8
6.4 nM | CCOc1ncc(S(=O)(=O)N2CCN(CC)CC2)cc1-c1nc2c(CC)n(C3CN(C(C)=O)C3)nc2c(=O)[nH]1 [Example 22, 2-(1-Acetylazetidin-3-yl)-5-[2-ethoxy-5-(4-ethylpiperazin-1-ylsulphonyl)pyridin-3-yl]-3-ethyl-2,6-dihydro-7H-pyrazolo[4,3-d]pyrimidin-7-one] | 325.3
1.52 nM | CCCOc1ncc(S(=O)(=O)N2CCN(CC)CC2)cc1-c1nc2c(CC)n(CCN(C)C(C)=O)nc2c(=O)[nH]1 [Example 24] | 134.9
